The assay deals with S. cerevisiae Cln2-overexpressing, Sic1-GFP degradation, flow cytometry. Kind of assay: Sic1-GFP degradation in Cln2-overexpressing yeast, mechanism study for 26S proteasome disassembly project, secondary assay, flow cytometry, S. cerevisiae (AID 1314). Background: Flow cytometry measures light scatter and fluorescence of single cells or particles in a stream.

Calls of active or inactive are those of the source.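 Rule for the calls: active = compounds raising the area under the GFP-over-time curve by more than 15% versus untreated cells, meaning slower Sic1 breakdown; inactive = the rest.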 Residues, ends and D or L forms follow the SMILES beside them. *: point of attachment. Cbz = O=C(OCc1ccccc1)*

On to `CC(C)C[C@@H](C=O)NC(=O)[C@H](CC(C)C)NC(=O)[C@H](CC(C)C)NC(=O)OCc1ccccc1` (Cbz-Leu-Leu-Leu-aldehyde), for which the outcome was “active; degradation inhibitor”.
`CC(=O)N1C(=O)C(=C2C=C(C)OC(C)=C2)c2ccccc21`: the outcome was “active; degradation inhibitor”.
